Data: PMC9052855 (RSC Advances, 2020)

What was measured:
jack bean urease [1] = target: T1, jack bean urease (Canavalia ensiformis, UniProt P07374); test: % urease inhibition assay and IC50; type: biochemical
jack bean urease [2] = target: T1, jack bean urease; test: urease enzyme kinetics study; type: biochemical

T1 sequence (P07374 whole entry, looked up): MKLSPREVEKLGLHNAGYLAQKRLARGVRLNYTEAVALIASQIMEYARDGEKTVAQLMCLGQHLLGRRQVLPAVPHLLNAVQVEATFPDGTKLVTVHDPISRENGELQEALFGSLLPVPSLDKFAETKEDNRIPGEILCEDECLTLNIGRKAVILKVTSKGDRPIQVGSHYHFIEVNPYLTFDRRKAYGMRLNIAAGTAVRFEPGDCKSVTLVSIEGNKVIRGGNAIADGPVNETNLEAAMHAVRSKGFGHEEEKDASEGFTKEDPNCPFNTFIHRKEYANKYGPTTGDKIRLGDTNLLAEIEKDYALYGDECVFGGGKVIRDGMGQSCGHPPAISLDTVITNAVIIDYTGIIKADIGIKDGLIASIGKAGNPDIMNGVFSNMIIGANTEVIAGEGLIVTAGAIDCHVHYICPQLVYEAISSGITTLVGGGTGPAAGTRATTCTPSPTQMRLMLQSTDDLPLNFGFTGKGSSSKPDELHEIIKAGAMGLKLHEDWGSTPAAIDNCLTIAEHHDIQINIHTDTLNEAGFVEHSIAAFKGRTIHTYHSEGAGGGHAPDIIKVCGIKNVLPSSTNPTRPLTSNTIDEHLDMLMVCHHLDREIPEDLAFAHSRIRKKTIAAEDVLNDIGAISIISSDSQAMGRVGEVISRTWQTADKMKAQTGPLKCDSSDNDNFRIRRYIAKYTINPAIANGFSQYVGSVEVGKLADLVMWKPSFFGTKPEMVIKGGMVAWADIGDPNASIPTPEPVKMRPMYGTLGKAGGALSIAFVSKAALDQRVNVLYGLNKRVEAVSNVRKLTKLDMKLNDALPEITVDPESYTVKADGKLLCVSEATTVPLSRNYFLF

## NC(N)=S [Thiourea, thiourea]
Jack bean urease [1]; concentration not given
  % inhibition: 92.3%
Jack bean urease [1]; read-out: IC50 (μM), mean ± SEM, triplicate, mean ± SEM
  IC50: 22.6 ± 0.23 µM
Jack bean urease [2]; Lineweaver–Burk plots, inhibitor 0–20 μM, urea 0.5–4.0 mM
  Mode of inhibition: Competitive
Jack bean urease [2]; calculated from secondary replot (Lineweaver–Burk)
  Ki: 18.2 µM
Jack bean urease [2]; maximum velocity of enzymatic activity at 20 μM inhibitor concentration
  Vmax (app): 18.61 µM/min
